Test results from patent US6890950B2, “Lapachone delivery systems, compositions and uses related thereto” (priority 2002, dated 2005).
Where “and” joins values, the source holds several entries; their conditions need not be identical. Identical values can stand only once. Entries after “also recorded” stand apart in the source; their conditions may differ.

Columns and labels:
[1] = phase solubility studies of β-lap with cyclodextrins; assay type: physicochemical
Description: Solubility studies were performed by adding excess amount of β-lap to a series of PBS buffer that contain different concentrations of each CD molecule ranging from zero to its solubility limit (see Table 1 for the solubility limit of each CD molecule). A schematic diagram of the intermolecular interactions and their effect on solubility is provided as FIG. 1. The suspensions were stirred at 25° C. until dissolution equilibrium was reached. […] Phase solubility diagram for each CD was obtained by plotting the β-lap solubility at dissolution equilibrium as a function of the CD concentration.

A549 NSCLC cells = experiment: survival and apoptosis (PARP cleavage) of NSCLC cells; assay type: cell-based, human; conditions: 8 μM β-lap, 4 h
Description: NQO1-dependent apoptosis of A549 or CC-10 NSCLC cells by β-lap.

[2] = solubility of β-lap in PBS (orbital shaker, UV-Vis); assay type: physicochemical; conditions: 37° C.
Description: Fabrication of β-lap-loaded polymer millirods. The extremely low solubility of β-lap in water has greatly limited the clinical use of this compound. The development of drug-impregnated millirods, wherein β-lap release kinetics may be accurately permits the delivery of an efficacious form of therapy against human prostate tumors that commonly over-express the NQO1 oxidoreductase. The extinction coefficient for β-lap in water was determined to be 2.6×10^4 cm^−1M^−1 at 257 nm wavelength by UV-V is spectrophotometry. Solubility experiments were performed by immersing β-lap in PBS over a period of six days in an orbital shaker at 37° C. At the start of the experiment the drug suspension was sonicated for 20 seconds to facilitate the fast reach of solubility equilibrium. Samples were taken and filtered by 0.2 μm Millipore filters via syringe to remove non-dissolved drug particles and diluted to accommodate the UV-V is sensitive range before collecting absorbance data. […] This concentration is too low for i.v. administration in clinical applications. […] Polymer millirods were fabricated using a compression heat molding procedure as previously developed in our lab. (Halpert, B., Sheehan, E. and Schmalhorst, W. (1998) Cancer 82, 737-742.) Briefly, β-lap particles were mixed with polymer microspheres (4 μm) and various concentrations of glucose. […]

[3] = β-lap release from polymer millirods in PBS; assay type: physicochemical; conditions: fabrication and controlled release
DU-145 cells = experiment: survival / lethality of CaP cells; assay type: cell-based, human
LNCaP cells = experiment: survival / lethality of CaP cells; assay type: cell-based, human; conditions: LNCaP (lack NQO1)
athymic nude mice = experiment: maximum tolerated dose in athymic nude mice; assay type: in vivo, mouse
Description: MDA_MB-468 NQO1+ Tumor (468) cells were injected into the right and left flanks of 18-20 gm athymic nude mice and tumors of 20-50 mm^3 volume were allowed to grow in 20-30 days. When tumor volumes reached 20-30 mm^3 (at day 26), mice were then treated (by intraperitoneal injection) every other day with the indicated doses (in mg/kg) of β-lap (55-70 mg/kg were tested). The maximum tolerated dose of β-lap in athymic nude mice was determined to be […]). Ten (10) β-lap doses were given every other day, and data are shown for only one cycle of β-lap treatment. Multiple cycles of treatments are now being tested, as are various dose regimen and scheduling protocols.
β-lap bioavailability and antitumor activity. To show efficacy of β-lap in vivo, a systemic delivery system was developed for this water-insoluble drug. β-Lap complexes with β-hydroxypropyl-β-cyclodextrin (HP-β-CD) that dissolves the drug and makes it bioavailable. The toxicity of HP-β-CD.β-lap in 18-20 gm athymic nude mice was examined and the maximum tolerated dose (MTD) was ˜75 mg/kg. […] We tested the effects of β-lap administered i.p. in athymic nude mice bearing NQO1^+ MDA-MB-468 (468) human breast cancer xenografts.

DU-145 = experiment: TUNEL apoptosis assay; assay type: cell-based, human; conditions: 10 μM, 4h, TUNEL 48h
[4] = system: LNCaP vector alone clones; experiment: apoptosis in transfected LNCaP clones; assay type: cell-based, human; conditions: 10 μM β-lap
Text: (§1) LNCaP cells were transfected with either pcDNA3 empty vector or pcDNA3 containing full-length NQO1 cDNA.

[5] = system: NQO1-expressing LNCaP clone (LN-NQ Cl 1-4, 10); experiment: apoptosis in transfected LNCaP clones; assay type: cell-based, human; conditions: 10 μM β-lap
Text: as §1

NQO1+ LNCaP NQCl2 cells = experiment: radiosensitization, clonogenic survival; assay type: cell-based, human; conditions: β-lap given 4 h post-IR
Description: (§2) FIG. 15. […] Changes in colony forming ability. In A, pcDNA3-vector alone cells were tested. In B, same as A, except that NQO1^+ LNCaP cells were used.
(§3) To answer the question of whether NQO1 levels must be induced for β-lap radiosensitization, we examined NQO1^+ LNCaP NQC12 v. NQO1^− LNCaP-pcDNA3 vector alone cells for differences in radiosensitization by various concentrations of β-lap, given 4 h post-IR (FIG. 15).

NQO1− LNCaP cells = experiment: radiosensitization, clonogenic survival; assay type: cell-based, human
Description: as §2, §3

[6] = system: MDA-MB-468 NQO1+ human breast cancer xenografts; experiment: antitumor activity against xenografts; assay type: in vivo, athymic nude mice; conditions: for antitumor activity: 55-70 mg/kg i.p. every other day
Description: Athymic nude mice bearing […] tumors were treated with the indicated mg/mk doses of β-lap i.p. every other day, beginning at day 26.
When tumor volumes reached 20-30 mm^3 (at day 26), mice were then treated (by intraperitoneal injection) every other day with the indicated doses (in mg/kg) of β-lap (55-70 mg/kg were tested). […] Multiple cycles of treatments are now being tested, as are various dose regimen and scheduling protocols.

[7] = system: NQO1-containing LNCaP clones; experiment: colony forming ability assays; assay type: cell-based, human; conditions: 4-h pulses
Description: FIG. 14. […] Colony forming ability assays (CFAs) were performed three times, each in triplicate.
as §1

PC-3 cells = experiment: survival / lethality of CaP cells; assay type: cell-based, human; conditions: PC-3, absence of IR

For `CC1(C)CCC2=C(O1)c1ccccc1C(=O)C2=O` [β-lap, β-Lapachone], the “increase of β-lap solubility in HPβ-CD over that in β-CD vehicle” value [1] was 24 fold, the “maximal solubility of β-lap in HPβ-CD solution” value ([1]; HPβ-CD solution, PBS, 25° C.) was 66.0 mM and 16.0 mg/ml and the “water solubility of β-lap” value ([1]; water) was 0.16 mM and 0.04 mg/ml. For the same molecule, the “maximal solubility of β-lap in β-CD solution” value ([1]; β-CD solution, PBS, 25° C.) was 2.8 mM and 0.68 mg/ml, the lethality and apoptosis (A549 NSCLC cells) was “caused lethality and apoptosis” and the “solubility of β-lap in PBS buffer” value [2] was 2.6×10^−4 M and 0.05 mg/cc. For the same molecule, the “structural integrity of released β-lap (UV-Vis spectra)” value [3] was “maintained; also recorded: maintains its structural integrity”, the lethality (DU-145 cells; DU-145, 4 μM β-lap) was greater than 95% and the survival (DU-145 cells; DU-145, 4 μM β-lap with 50 μM dicoumarol) was greater than 95%. For the same molecule, the “sensitivity to β-lap” value (DU-145 cells; DU-145, absence of IR) was “sensitive”, the “sensitivity to β-lap” value (LNCaP cells) was “resistant” and the “maximum tolerated dose (MTD)” value (athymic nude mice; 18-20 gm athymic nude mice) was 80 mg/kg. For the same molecule, the “greater bioavailability in vivo than in previous studies” value (athymic nude mice; HP-β-CD complex MTD vs lipiodol LD50) was roughly 3 fold, the “Apoptosis (%) After Drug Treatment” value (DU-145; DU-145 + DC (50 μM dicoumarol)) was 0.12% and the “Apoptosis (%) After Drug Treatment” value (DU-145; DU-145 + DVED) was 76%. For the same molecule, the “Apoptosis (%) After Drug Treatment” value (DU-145; DU-145) was 71%, the apoptosis [4] was less than 5% and the apoptosis [5] was 80-90%. For the same molecule, the radiosensitization (NQO1+ LNCaP NQCl2 cells) was “radiosensitized”, the radiosensitization (NQO1− LNCaP cells) was “not sensitized” and the antitumor activity [6] was “significant antitumor responses; also recorded: Significant antitumor activity”. For the same molecule, the antitumor activity ([6]; listed as β-Lap) was “significant antitumor activity”, the antitumor responses ([6]; 65 and 70 mg/kg i.p. every other day, 10 doses) was “Significant antitumor responses” and the “sensitivity compared to NQO1-deficient LN-pcDNA3 vector alone cells” value [7] was “significantly more sensitive”. The “sensitivity to β-lap” value (PC-3 cells) was “sensitive”.
